Results: publication PMC7359744 (ACS chemical neuroscience, 2020)

Tests used:
[1] = test system: human μ-opioid receptor β-arrestin-2; assay type: cell-based
[2] = test system: male C57 BL/6 mice; assay: animal or person; assay type: in vivo
[3] = target: human κ-opioid receptor (OPRK1) (Homo sapiens, UniProt P41145); assay type: cell-based; conditions: read-out: KOR EC50 ± SEM
human κ-opioid receptor (OPRK1), sequence (P41145 whole entry): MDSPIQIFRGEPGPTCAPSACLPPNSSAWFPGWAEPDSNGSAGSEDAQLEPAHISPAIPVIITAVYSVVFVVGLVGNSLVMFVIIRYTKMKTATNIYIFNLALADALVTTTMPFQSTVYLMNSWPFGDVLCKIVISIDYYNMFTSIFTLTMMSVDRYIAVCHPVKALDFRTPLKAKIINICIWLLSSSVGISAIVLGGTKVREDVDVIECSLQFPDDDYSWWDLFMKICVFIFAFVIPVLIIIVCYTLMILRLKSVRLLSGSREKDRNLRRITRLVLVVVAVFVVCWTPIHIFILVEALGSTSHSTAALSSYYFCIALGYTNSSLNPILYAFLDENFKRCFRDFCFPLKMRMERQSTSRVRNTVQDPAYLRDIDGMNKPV

Compound	Bias Factor [1]	β-arrestin recruitment % Efficacy [1]	ED50 ([2]; Mus musculus, 24 h, read-out: antinociceptive ED50, day 1) [mg/kg]	antinociceptive tolerance on day 9 compared to day 1 ([2]; mouse, in vivo, sc)	onset of tolerance ([2]; mouse, in vivo, sc) [days]	EC50 [3] [µM]	antinociceptive ED50, day 1 ([2]; mouse, in vivo) [mg/kg]	antinociceptive ED50, day 9 ([2]; mouse, in vivo) [mg/kg]
C[C@@H](NC(=O)[C@@H](N)Cc1ccc(O)cc1)C(=O)NCC(=O)N(C)[C@@H](Cc1ccccc1)C(=O)NCCO [DAMGO]	1	42 ± 5 (97) %						
CN1CC[C@]23c4c5ccc(O)c4O[C@H]2[C@@H](O)C=C[C@H]3[C@H]1C5 [Morphine]			6.43 ± 0.27	significant induction of tolerance	5			
COC(=O)[C@@H]1C=C(OC(=O)c2ccccc2)C(=O)[C@H]2[C@@]1(C)CC[C@H]1C(=O)O[C@H](c3ccoc3)C[C@]21C [Compound 1, kurkinorin]				reduced tolerance compared to morphine		> 10	5 ± 0.51	7.9 ± 0.11
